≈ marks a conversion by molar mass, not a printed value. Like-named read-outs stand apart in the source and are kept apart here.
What was measured:
[1] = tested on: Mycobacterium tuberculosis; settings: target CHEMBL360; ref ChEMBL; cited from earlier work
[2] = tested on: Staphylococcus aureus subsp. aureus ATCC 29213, CCM 4223; experiment: Antibacterial microdilution broth, quality standards; type: cell-based; settings: 24 h
[3] = tested on: Escherichia coli ATCC 25922, CCM 3954; experiment: as above; type: cell-based; settings: 24 h
[4] = tested on: Acinetobacter baumannii ATCC 19606, DSM 30007; experiment: as above; type: cell-based; settings: 24 h
[5] = tested on: Klebsiella pneumoniae ATCC 10031, CCM 4415; experiment: as above; type: cell-based; settings: 24 h
[6] = tested on: Staphylococcus epidermidis ATCC 12228, CCM 4418; experiment: as above; type: cell-based; settings: 24 h
[7] = tested on: Staphylococcus aureus subsp. aureus, MRSA ATCC 43300, CCM 4750; experiment: as above; type: cell-based; settings: 24 h
[8] = tested on: Pseudomonas aeruginosa ATCC 27853, CCM 3955; experiment: as above; type: cell-based; settings: 24 h
[9] = tested on: Enterococcus faecalis ATCC 29212, CCM 4224; experiment: as above; type: cell-based; settings: 24 h
Bacteria, incl. SA = experiment: Antibacterial microdilution screening (eight strains); type: cell-based; settings: read after 24 and 48 h, highest tested concentration 500 μM
MRC-5 = experiment: cells; settings: Homo sapiens
M. aurum = experiment: Microdilution broth resazurin assay, MIC; type: cell-based, Mycolicibacterium aurum
Fungi = experiment: Antifungal microdilution screening (eight strains); type: cell-based; settings: read after 24 and 48 h (72 and 120 h for TI), highest tested concentration 500 μM
MDR Mtb H37Rv = experiment: microbe, parasite or virus in culture; type: cell-based; settings: Mycobacterium tuberculosis, read-out: MIC MDR Mtb H37Rv
Mtb H37Rv = experiment: Microplate Alamar Blue assay, MIC; type: cell-based, Mycobacterium tuberculosis; settings: Mycobacterium tuberculosis, H37RV
M. kansasii = experiment: Microplate Alamar Blue assay, MIC; type: cell-based, Mycobacterium kansasii; settings: Mycobacterium kansasii; read-out: Antimycobacterial Activity MIC M. kans.
M. avium = experiment: Microdilution broth resazurin assay, MIC; type: cell-based, Mycobacterium avium; settings: for MIC: Mycobacterium avium, read-out: Antimycobacterial Activity MIC M. avium
HepG2 = experiment: cells; settings: Homo sapiens
M. smegmatis = experiment: Microdilution broth resazurin assay, MIC; type: cell-based, Mycolicibacterium smegmatis
Mtb H37Ra = experiment: Microdilution broth resazurin assay, MIC; type: cell-based, Mycobacterium tuberculosis
Protein RecA = tested on: Protein RecA; design: method as in ChEMBL; settings: target CHEMBL1741171; ref ChEMBL; cited from earlier work
[10] = MRC5, 24 h, read-out: IC50 for MRC-5 [24 h]
[11] = MRC5, 72 h, read-out: IC50 for MRC-5 [72 h]
[12] = Microplate Alamar Blue assay, read-out: Antimycobacterial Activity MIC Mtb H37Rv
[13] = calculated from the measured MIC in mass concentration units, read-out: MIC Mtb H37Rv
[14] = HepG2, 24 h, read-out: IC50 for HepG2 [24 h]
[15] = HepG2, 72 h, read-out: IC50 for HepG2 [72 h]
[16] = Mycobacterium tuberculosis, H37RA; calculated from the measured MIC in mass concentration units; read-out: MIC Mtb H37Ra

## Cc1nc2ccc(-c3ccccc3)cc2c(=O)n1-c1ccccc1 [CHEMBL4442905]
[1]
  MIC Mycobacterium tuberculosis: > 64 µg/mL

## CNC(C)C1CCC(N)C(OC2C(N)CC(N)C(OC3OCC(C)(O)C(NC)C3O)C2O)O1 (centres unmarked) [gentamicin]
[2]; 95% growth inhibition, read-out: MIC spectrophotometric detection, S. aureus
  MIC: 1 µg/mL (≈ 2.09 µM)
[2]; naked eye, read-out: MIC visual detection, S. aureus
  MIC: 1 µg/mL (≈ 2.09 µM)
[3]; 95% growth inhibition, read-out: MIC spectrophotometric detection, E. coli
  MIC: 1 to 2 µg/mL (≈ 2.09 to 4.19 µM)
[3]; naked eye, read-out: MIC visual detection, E. coli
  MIC: 1 to 2 µg/mL (≈ 2.09 to 4.19 µM)
[4]; 95% growth inhibition, read-out: MIC spectrophotometric detection, A. baumannii
  MIC: 2 µg/mL (≈ 4.19 µM)
[4]; naked eye, read-out: MIC visual detection, A. baumannii
  MIC: 2 µg/mL (≈ 4.19 µM)
[5]; 95% growth inhibition, read-out: MIC spectrophotometric detection, K. pneumoniae
  MIC: > 8 µg/mL
[5]; naked eye, read-out: MIC visual detection, K. pneumoniae
  MIC: > 8 µg/mL
[6]; 95% growth inhibition, read-out: MIC spectrophotometric detection, S. epidermidis
  MIC: > 8 µg/mL
[6]; naked eye, read-out: MIC visual detection, S. epidermidis
  MIC: > 8 µg/mL
[7]; 95% growth inhibition, read-out: MIC spectrophotometric detection, MRSA
  MIC: 16 to 32 µg/mL (≈ 33.5 to 67 µM)
[7]; naked eye, read-out: MIC visual detection, MRSA
  MIC: 16 to 32 µg/mL (≈ 33.5 to 67 µM)
[8]; 95% growth inhibition, read-out: MIC spectrophotometric detection, P. aeruginosa
  MIC: 0.5 µg/mL (≈ 1.05 µM)
[8]; naked eye, read-out: MIC visual detection, P. aeruginosa
  MIC: 0.5 µg/mL (≈ 1.05 µM)
[9]; read-out: MIC spectrophotometric detection, E. faecalis
  MIC: 16 µg/mL (≈ 33.5 µM)
[9]; naked eye, read-out: MIC visual detection, E. faecalis
  MIC: 8 µg/mL (≈ 16.8 µM)

## Cc1nc2cc(Cl)ccc2c(=O)n1Cc1ccc(F)cc1 [Compound 19]
Bacteria, incl. SA
  MIC Bacteria, incl. SA: inactive
MRC-5; [10]
  IC50: > 100 µM
MRC-5; [11]
  IC50: > 100 µM
M. aurum; Mycolicibacterium aurum; read-out: Antimycobacterial Activity MIC M. aurum
  MIC: 31.2 µg/mL (≈ 103 µM)
Fungi
  MIC Fungi: inactive
MDR Mtb H37Rv
  MIC: 41 to 165 µM (≈ 12.4 to 50 µg/mL)
Mtb H37Rv; [12]
  MIC: 25 µg/mL
Mtb H37Rv; [13]
  MIC: 83 µM
M. kansasii
  MIC: > 100 µg/mL
M. avium
  MIC: 15.6 µg/mL (≈ 51.6 µM)
HepG2; [14]
  IC50: > 50 µM
HepG2; [15]
  IC50: > 50 µM
M. smegmatis; Mycolicibacterium smegmatis; read-out: Antimycobacterial Activity MIC M. smeg.
  MIC: 31.2 µg/mL (≈ 103 µM)
Mtb H37Ra; [16]
  MIC: 26 µM
Mtb H37Ra; Mycobacterium tuberculosis, H37RA; read-out: Antimycobacterial Activity MIC Mtb H37Ra
  MIC: 7.81 µg/mL

## O=c1c2ccccc2nc(/C=C/c2cccnc2)n1CCc1ccccc1 [CHEMBL1366795]
Protein RecA
  EC50: 12 µM

## COc1ccc(Cn2c(C)nc3cc(Cl)ccc3c2=O)cc1 [Compound 17]
Bacteria, incl. SA
  MIC Bacteria, incl. SA: inactive
MRC-5; [10]
  IC50: > 100 µM
MRC-5; [11]
  IC50: > 100 µM
M. aurum
  Antimycobacterial Activity MIC M. aurum: 15.625 µg/mL
M. aurum; Mycolicibacterium aurum, read-out: Antimycobacterial Activity MIC M. aurum
  MIC: 15.6 µg/mL (≈ 49.6 µM)
Fungi
  MIC Fungi: inactive
MDR Mtb H37Rv
  MIC: 40 µM (≈ 12.6 µg/mL)
Mtb H37Rv; [12]
  MIC: 12.5 µg/mL
Mtb H37Rv; [13]
  MIC: 40 µM
Mtb H37Rv; read-out: Antimycobacterial Activity MIC Mtb H37Rv, Table S5 matching pairs series A and B
  MIC: > 100 µg/mL
M. kansasii
  MIC: > 100 µg/mL
M. avium
  MIC: ≥ 500 µg/mL
M. avium; Table S5 matching pairs series A and B
  Antimycobacterial Activity MIC M. avium: ≥ 500 µg/mL
HepG2; [14]
  IC50: > 50 µM
HepG2; [15]
  IC50: > 50 µM
M. smegmatis
  Antimycobacterial Activity MIC M. smeg.: 31.25 µg/mL
M. smegmatis; Mycolicibacterium smegmatis, read-out: Antimycobacterial Activity MIC M. smeg.
  MIC: 31.2 µg/mL (≈ 99.3 µM)
Mtb H37Ra
  Antimycobacterial Activity MIC Mtb H37Ra: 7.81 µg/mL
Mtb H37Ra; Mycobacterium tuberculosis, H37RA, read-out: Antimycobacterial Activity MIC Mtb H37Ra
  MIC: 7.81 µg/mL
Mtb H37Ra; [16]
  MIC: 25 µM

Reference: article PMC12221116, “Novel Quinazolinones Active against Multidrug‐Resistant Mycobacterium Tuberculosis: Synthesis, Antimicrobial Evaluation, and in Silico Exploration of Penicillin‐Binding Protein 1A as a Potential Target” (Chemmedchem, 2025)
